Data taken from the NIST ThermoML archive (doi:10.1021/je400783h).
± gives the expanded uncertainty stated by the source.

Conditions: for mass density / vapor or sublimation pressure / viscosity / speed of sound: Liquid; for vapor or sublimation pressure: Ebulliometric method (Recirculating still); for surface tension liquid-gas: Drop volume; for viscosity: Capillary tube (Ostwald / Ubbelohde) method; for speed of sound: Pulse-echo method

OCC1CCCO1 (stereo not given) [2-tetrahydrofurylmethanol]
Conditions	mass density [kg/m3]	speed of sound [m/s]	viscosity [mPa·s]
313.15 K, 7500 kPa	1041.89 ± 0.46	–	–
313.15 K, 10000 kPa	1043.41 ± 0.48	–	–
313.15 K, 20000 kPa	1048.93 ± 0.57	–	–
313.15 K, 30000 kPa	1054.21 ± 0.68	–	–
313.15 K, 40000 kPa	1059.19 ± 0.81	–	–
313.15 K, 50000 kPa	1063.91 ± 0.94	–	–
313.15 K, 60000 kPa	1068.44 ± 1.1	–	–
315.65 K, 101.33 kPa	–	1424.1 ± 1.2	3.374 ± 0.072
318.15 K, 100 kPa	1032.83 ± 0.39	–	–
318.15 K, 101.33 kPa	–	1415.4 ± 1.2	3.177 ± 0.067
318.15 K, 2500 kPa	1034.57 ± 0.41	–	–
318.15 K, 5000 kPa	1036.11 ± 0.42	–	–
318.15 K, 7500 kPa	1037.62 ± 0.44	–	–
318.15 K, 10000 kPa	1039.11 ± 0.46	–	–
318.15 K, 20000 kPa	1044.81 ± 0.55	–	–
318.15 K, 30000 kPa	1050.15 ± 0.65	–	–
318.15 K, 40000 kPa	1055.24 ± 0.77	–	–
318.15 K, 50000 kPa	1060.12 ± 0.91	–	–
318.15 K, 60000 kPa	1064.68 ± 1.1	–	–
320.65 K, 101.33 kPa	–	1406.8 ± 1.2	2.996 ± 0.064
323.15 K, 100 kPa	1028.47 ± 0.39	–	–
323.15 K, 101.33 kPa	–	1398.1 ± 1.2	2.83 ± 0.06
323.15 K, 2500 kPa	1030.3 ± 0.4	–	–
323.15 K, 5000 kPa	1031.87 ± 0.41	–	–
323.15 K, 7500 kPa	1033.41 ± 0.43	–	–
323.15 K, 10000 kPa	1034.93 ± 0.45	–	–
323.15 K, 20000 kPa	1040.79 ± 0.53	–	–
323.15 K, 30000 kPa	1046.28 ± 0.63	–	–
323.15 K, 40000 kPa	1051.44 ± 0.74	–	–
323.15 K, 50000 kPa	1056.41 ± 0.87	–	–
323.15 K, 60000 kPa	1061.07 ± 1	–	–
325.65 K, 101.33 kPa	–	1389.4 ± 1.2	2.677 ± 0.057
328.15 K, 100 kPa	1024.08 ± 0.38	–	–
328.15 K, 101.33 kPa	–	1380.8 ± 1.2	2.535 ± 0.054
328.15 K, 2500 kPa	1025.88 ± 0.39	–	–
328.15 K, 5000 kPa	1027.49 ± 0.4	–	–
328.15 K, 7500 kPa	1029.13 ± 0.42	–	–
328.15 K, 10000 kPa	1030.63 ± 0.43	–	–
328.15 K, 20000 kPa	1036.6 ± 0.51	–	–
328.15 K, 30000 kPa	1042.2 ± 0.6	–	–
328.15 K, 40000 kPa	1047.5 ± 0.71	–	–
328.15 K, 50000 kPa	1052.52 ± 0.83	–	–
328.15 K, 60000 kPa	1057.3 ± 0.97	–	–
330.65 K, 101.33 kPa	–	1372.1 ± 1.2	2.404 ± 0.051
333.15 K, 100 kPa	1019.68 ± 0.37	–	–
333.15 K, 101.33 kPa	–	1363.5 ± 1.2	2.282 ± 0.049
333.15 K, 2500 kPa	1021.52 ± 0.38	–	–
333.15 K, 5000 kPa	1023.18 ± 0.39	–	–
333.15 K, 7500 kPa	1024.84 ± 0.4	–	–
333.15 K, 10000 kPa	1026.39 ± 0.42	–	–
333.15 K, 20000 kPa	1032.49 ± 0.49	–	–
333.15 K, 30000 kPa	1038.22 ± 0.58	–	–
333.15 K, 40000 kPa	1043.64 ± 0.68	–	–
333.15 K, 50000 kPa	1048.73 ± 0.8	–	–
333.15 K, 60000 kPa	1053.6 ± 0.93	–	–
335.65 K, 101.33 kPa	–	1354.8 ± 1.2	2.169 ± 0.046
338.15 K, 100 kPa	1015.24 ± 0.36	–	–
338.15 K, 101.33 kPa	–	1346.2 ± 1.2	2.064 ± 0.044
338.15 K, 2500 kPa	1017.04 ± 0.37	–	–
338.15 K, 5000 kPa	1018.75 ± 0.38	–	–
338.15 K, 7500 kPa	1020.45 ± 0.39	–	–
338.15 K, 10000 kPa	1022.06 ± 0.4	–	–
338.15 K, 20000 kPa	1028.31 ± 0.47	–	–
338.15 K, 30000 kPa	1034.16 ± 0.55	–	–
338.15 K, 40000 kPa	1039.68 ± 0.65	–	–
338.15 K, 50000 kPa	1044.89 ± 0.76	–	–
338.15 K, 60000 kPa	1049.83 ± 0.88	–	–

Conditions	surface tension liquid-gas [mN/m]	vapor or sublimation pressure [kPa]
313.15 K	–	0.21 ± 0.1
315.65 K	35.74 ± 0.26	–
318.15 K	35.48 ± 0.26	0.31 ± 0.1
320.65 K	35.23 ± 0.26	–
323.15 K	34.98 ± 0.26	0.43 ± 0.1
325.65 K	34.72 ± 0.25	–
328.15 K	34.47 ± 0.25	0.63 ± 0.1
330.65 K	34.22 ± 0.25	–
333.15 K	33.96 ± 0.25	0.86 ± 0.1
335.65 K	33.71 ± 0.25	–
338.15 K	33.46 ± 0.25	1.15 ± 0.1
343.15 K	–	1.55 ± 0.1
348.15 K	–	2.11 ± 0.1
353.15 K	–	2.72 ± 0.1
358.15 K	–	3.53 ± 0.1
363.15 K	–	4.51 ± 0.1
368.15 K	–	5.72 ± 0.1
373.15 K	–	7.22 ± 0.1
378.15 K	–	9.11 ± 0.1
383.15 K	–	11.18 ± 0.1
388.15 K	–	13.68 ± 0.1
393.15 K	–	16.64 ± 0.1
398.15 K	–	20.17 ± 0.1
403.15 K	–	24.22 ± 0.1
408.15 K	–	28.63 ± 0.11
413.15 K	–	34.22 ± 0.11
418.15 K	–	40.19 ± 0.11
423.15 K	–	47.32 ± 0.12
428.15 K	–	56.31 ± 0.12
433.15 K	–	65.02 ± 0.13
438.15 K	–	74.02 ± 0.13
443.15 K	–	84.98 ± 0.14
448.15 K	–	97.93 ± 0.15

101.33 kPa, Vibrating tube method
Conditions	mass density [kg/m3]
315.65 K	1035 ± 0.27
318.15 K	1032.83 ± 0.27
320.65 K	1030.65 ± 0.27
323.15 K	1028.47 ± 0.27
325.65 K	1026.28 ± 0.27
328.15 K	1024.08 ± 0.26
330.65 K	1021.88 ± 0.26
333.15 K	1019.68 ± 0.26
335.65 K	1017.46 ± 0.26
338.15 K	1015.24 ± 0.26
